Measured values published in patent publication US12215111B2, “Imidazopyridazine IL-17 inhibitor compounds” (Janssen Pharmaceutica NV, priority 2021, dated 2025).
pIC50: −log10 of the molar value.

Molecular target: IL-17A(FLAG-Tagged): IL-17RA(His-Tagged) (Homo sapiens, UniProt Q16552, K93Q)
Test: IL-17A(FLAG-tagged):IL-17RA(His-tagged) binding disruption Eu-HTRF assay, Protocol 1
Conditions: FLAG tagged IL-17A at 2× final concentration (2.5 nM); simple average if tested more than once
From the text: IL-17A(FLAG-Tagged): IL-17RA(His-Tagged) Binding Disruption Eu-HTRF Assay
An antibody directed against the FLAG tag of IL-17A (SEQ ID NO:1) is labeled with the HTRF donor chromophore (Europium-cryptate). IL-17A is present as a dimer that is “locked into” this quaternary structure due to the formation of loop-spanning […] disulfide bridges. The construct of IL-17RA used in the assay excludes the outer-membrane portion of the receptor and is fused to a C-terminal 10×His tag (SEQ ID NO:2). An antibody directed against the His tag of the IL-17RA chimera is labeled with the HTRF acceptor chromophore (“D2”). The fluorescence-resonance energy transfer (FRET) depends on the vicinity of the donor chromophore to the acceptor, and interruption of the binding between the IL-17A and IL-17RA causes the reduction/loss of FRET. Therefore, this assay allows to evaluate the compound effect on the binding IL-17A and IL-17RA by monitoring the fluorescence intensity of donor vs acceptor. The assay was run using either Protocol 1 or Protocol 2 described below.
Protocol 1: 40 nL of 2-fold serial diluted compound solution for total 22 dilution points is added into each well of a 1536-well, white, low-volume, non-binding plate (Greiner #782904), then 2 μl of FLAG tagged IL-17A at 2× final concentration (2.5 nM) in solution of PBS+0.01% Triton-X100 is added to each well. The assay plate is briefly centrifuged then incubated for 1 h at rt. A mixed solution is prepared containing 2×5 nM 10HIS×IL-17RA, 2×2.5 nM Eu-anti-FLAG (CISBIO), 2×5 nM D2-anti-HIS (CISBIO) in PBS+0.01% Triton-X100+200 mM Potassium Fluoride (Sigma 60238) and […] of mix is added to each well of the assay plate. The plate is briefly centrifuged then incubated for 2 h at rt. The HTRF intensities at the wavelength of donor (620 nm) and acceptor (665 nm) are measured using BMG Pherastar. The ratio between intensities at two wavelengths is calculated and plotted against the compound concentration and the data is fitted to a one-site competition model to yield IC50 of the compound.

Chain of UniProt Q16552 (Q16552 with tags, fused parts or gaps K93Q): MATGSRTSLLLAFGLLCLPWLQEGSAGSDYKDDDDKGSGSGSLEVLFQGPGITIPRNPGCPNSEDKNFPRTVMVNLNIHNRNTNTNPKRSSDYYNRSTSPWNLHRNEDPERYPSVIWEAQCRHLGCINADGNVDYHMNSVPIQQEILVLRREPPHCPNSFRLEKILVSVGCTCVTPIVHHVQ

Structure (SMILES) | IC50
COC[C@H](c1cnn2cc([C@H](COC(C)(C)C(F)(F)F)NC(=O)c3ncnn3C(C)C)nc2c1)N1C[C@@H](C(F)(F)F)NC1=O [Example 36, 1-Isopropyl-N—((R)-1-(7-((S)-2-methoxy-1-((S)-2-oxo-4-(trifluoromethyl)imidazolidin-1-yl)ethyl)imidazo[1,2-b]pyridazin-2-yl)-2-((1,1,1-trifluoro-2-methylpropan-2-yl)oxy)ethyl)-1H-1,2,4-triazole-5-carboxamide] | < 4 µM
Cc1nonc1C(=O)N[C@H](c1cn2ncc([C@H](N3C[C@@H](C(F)(F)F)NC3=O)C3(C#N)CCC3)cc2n1)C1CCC(F)(F)CC1 [Example 22, N—((S)-(7-((S)—(1-Cyanocyclobutyl)((S)-2-oxo-4-(trifluoromethyl)imidazolidin-1-yl)methyl)imidazo[1,2-b]pyridazin-2-yl)(4,4-difluorocyclohexyl)methyl)-4-methyl-1,2,5-oxadiazole-3-carboxamide] | < 4 µM

Test system: IL-17A-induced G-CSF production in human normal keratinocyte (NHK)
Test: NHK assay: IL-17A-induced G-CSF production in normal human keratinocytes
Format: cell-based
Conditions: Homo sapiens, Keratinocyte; IL-17A 5 ng/mL, 24 h at 37° C., G-CSF by HTRF; simple average if tested more than once
Description: IL-17A acts directly on keratinocytes through binding to dimeric receptor IL-17RA/RC and drives the production of a number of inflammatory mediators known to be elevated in psoriasis lesional tissue. IL-17A small molecule inhibitors that block the IL-17A to interact with IL-17R would inhibit the IL-17A signaling in its targeted cells such as keratinocytes. The compound functional activity is evaluated for its impact on IL-17A-induced G-CSF production in human normal keratinocyte (NHK).
Adult normal human keratinocytes are cultured in keratinocyte growth medium (Lonza) in a flask till reaching ˜90% confluence, then cells are transferred to a 384-well plate at density of 3000-4000 cell/well. Recombinant human IL-17A (Gibco PHC9174) is pre-incubated with titrated compound or DMSO for 1 h at rt then added to the cell culture plate. The final concentration of IL-17A is 5 ng/mL and DMSO is 0.2%, in the culture containing 5% FBS. Cells are cultured/treated for 24 h at 37° C. Supernatants are collected and G-CSF production is measured through HTRF technology using Human G-CSF Kit (CisBio). G-CSF concentration was extrapolated from the standard curve and IC50 is determined using GraphPad Prism. Cell viability is also evaluated using CellTiter-Glo kit (Promega) and effect of compound on cell viability is compared to DMSO control.

Structure (SMILES) | pIC50
Cc1nonc1C(=O)N[C@H](c1cn2ncc([C@@H](C3CC3)N3CC4(CC4)NC3=O)cc2n1)C1CCC(F)(F)CC1 [Example 21, N—[(S)—[7-[(R)-Cyclopropyl-(6-oxo-5,7-diazaspiro[2.4]heptan-5-yl)methyl]imidazo[1,2-b]pyridazin-2-yl]-(4,4-difluorocyclohexyl)methyl]-4-methyl-1,2,5-oxadiazole-3-carboxamide] | > 5.40
[2H]C1([2H])N([C@H](COC)c2cnn3cc([C@H](COC(C)(C)C(F)(F)F)NC(=O)c4nonc4C4CC4)nc3c2)C(=O)NC1([2H])C(F)(F)F (stereo in doubt) [Example 34, 4-Cyclopropyl-N—((R)-1-(7-((S)-2-methoxy-1-((R)-2-oxo-4-(trifluoromethyl)imidazolidin-1-yl-4,5,5-d3)ethyl)imidazo[1,2-b]pyridazin-2-yl)-2-((1,1,1-trifluoro-2-methylpropan-2-yl)oxy)ethyl)-1,2,5-oxadiazole-3-carboxamide] | > 5.40
C[C@@]1(C(F)(F)F)CN(Cc2cnn3cc([C@@H](NC(=O)c4nonc4C4CC4)C4CCC(F)(F)CC4)nc3c2)C(=O)N1 [Example 29] | > 5.40
COC[C@H](c1cnn2cc([C@H](COC(C)(C)C(F)(F)F)NC(=O)c3ncnn3C(C)C)nc2c1)N1C[C@@H](C(F)(F)F)NC1=O [Example 36, 1-Isopropyl-N—((R)-1-(7-((S)-2-methoxy-1-((S)-2-oxo-4-(trifluoromethyl)imidazolidin-1-yl)ethyl)imidazo[1,2-b]pyridazin-2-yl)-2-((1,1,1-trifluoro-2-methylpropan-2-yl)oxy)ethyl)-1H-1,2,4-triazole-5-carboxamide] | > 5.40
Cc1nonc1C(=O)N[C@H](c1cn2ncc([C@H](N3C[C@@H](C(F)(F)F)NC3=O)C3(C#N)CCC3)cc2n1)C1CCC(F)(F)CC1 [Example 22, N—((S)-(7-((S)—(1-Cyanocyclobutyl)((S)-2-oxo-4-(trifluoromethyl)imidazolidin-1-yl)methyl)imidazo[1,2-b]pyridazin-2-yl)(4,4-difluorocyclohexyl)methyl)-4-methyl-1,2,5-oxadiazole-3-carboxamide] | > 5.40
Cc1nonc1C(=O)N[C@@H](CCC(C)(C)C(F)(F)F)c1cn2ncc([C@@H](COC3CC3)N3C[C@@H](C(F)(F)F)NC3=O)cc2n1 [Example 38, N—((S)-1-(7-((S)-2-Cyclopropoxy-((S)-2-oxo-4-(trifluoromethyl)imidazolidin-1-yl)ethyl)imidazo[1,2-b]pyridazin-2-yl)-5,5,5-trifluoro-4,4-dimethylpentyl)-4-methyl-1,2,5-oxadiazole-3-carboxamide] | > 5.40
COC[C@H](c1cnn2cc([C@H](CC(C)(C)C(F)(F)F)NC(=O)c3nonc3C3CC3)nc2c1)N1C[C@@H](C(F)(F)F)NC1=O [Example 13, 4-Cyclopropyl-N—((S)-4,4,4-trifluoro-1-(7-((S)-2-methoxy-1-((S)-2-oxo-4-(trifluoromethyl)imidazolidin-1-yl)ethyl)imidazo[1,2-b]pyridazin-2-yl)-3,3-dimethylbutyl)-1,2,5-oxadiazole-3-carboxamide] | > 5.40
COC[C@H](c1cnn2cc([C@H](CC(C)(C)C(F)(F)F)NC(=O)c3nonc3C)nc2c1)N1C[C@@H](C(F)(F)F)NC1=O [Example 14, 4-Methyl-N—((S)-4,4,4-trifluoro-1-(7-((S)-2-methoxy-1-((S)-2-oxo-4-(trifluoromethyl)imidazolidin-1-yl)ethyl)imidazo[1,2-b]pyridazin-2-yl)-3,3-dimethylbutyl)-1,2,5-oxadiazole-3-carboxamide] | > 5.40
COC[C@H](c1cnn2cc([C@H](CC(C)(C)C(F)(F)F)NC(=O)c3ccnn3C(C)C)nc2c1)N1C[C@@H](C(F)(F)F)NC1=O [Example 15, 1-Isopropyl-N—((S)-4,4,4-trifluoro-1-(7-((S)-2-methoxy-((S)-2-oxo-4-(trifluoromethyl)imidazolidin-1-yl)ethyl)imidazo[1,2-b]pyridazin-2-yl)-3,3-dimethylbutyl)-1H-pyrazole-5-carboxamide] | > 5.40
Cc1nonc1C(=O)N[C@H](c1cn2ncc(CN3C[C@@](C)(C(F)(F)F)NC3=O)cc2n1)C1CCC(F)(F)CC1 [Example 28, N—((S)—(4,4-Difluorocyclohexyl)(7-(((S)-4-methyl-2-oxo-4-(trifluoromethyl)imidazolidin-1-yl)methyl)imidazo[1,2-b]pyridazin-2-yl)methyl)-4-methyl-1,2,5-oxadiazole-3-carboxamide] | > 5.40
COC[C@H](c1cnn2cc([C@H](COC(C)(C)C(F)(F)F)NC(=O)[C@@H]3C[C@H]3C(F)(F)F)nc2c1)N1C[C@@H](C(F)(F)F)NC1=O (relative stereo) [Example 32, (1R*,2R*)—N—((R)-1-(7-((S)-2-Methoxy-((S)-2-oxo-4-(trifluoromethyl)imidazolidin-1-yl)ethyl)imidazo[1,2-b]pyridazin-2-yl)-2-(1,1,1-trifluoro-2-methylpropan-2-yl)oxy)ethyl)-2-(trifluoromethyl)cyclopropane-1-carboxamide] | > 5.40
CC(C)(CC[C@H](NC(=O)c1nonc1C1CC1)c1cn2ncc([C@@H](COC3CC3)N3C[C@@H](C(F)(F)F)NC3=O)cc2n1)C(F)(F)F [Example 39, N—((S)-1-(7-((S)-2-Cyclopropoxy-((S)-2-oxo-4-(trifluoromethyl)imidazolidin-1-yl)ethyl)imidazo[1,2-b]pyridazin-2-yl)-5,5,5-trifluoro-4,4-dimethylpentyl)-4-cyclopropyl-1,2,5-oxadiazole-3-carboxamide] | > 5.40
CC(C)(OC[C@H](NC(=O)c1nonc1C1CC1)c1cn2ncc(CN3C[C@@H](C(F)(F)F)NC3=O)cc2n1)C(F)(F)F [Example 24] | > 5.40
[2H]C1([2H])N([C@H](COC)c2cnn3cc([C@H](COC(C)(C)C(F)(F)F)NC(=O)c4nonc4C)nc3c2)C(=O)NC1([2H])C(F)(F)F (stereo in doubt) [Example 35, N—((R)-1-(7-((S)-2-Methoxy-1-((R)-2-oxo-4-(trifluoromethyl)imidazolidin-1-yl-4,5,5-d3)ethyl)imidazo[1,2-b]pyridazin-2-yl)-2-((1,1,1-trifluoro-2-methylpropan-2-yl)oxy)ethyl)-4-methyl-1,2,5-oxadiazole-3-carboxamide] | > 5.40
CC(C)n1nccc1C(=O)N[C@H](c1cn2ncc([C@H](COC3CC3)N3C[C@@H](C(F)(F)F)NC3=O)cc2n1)C1CCC(F)(F)CC1 (single isomer, unassigned) [Example 44] | > 5.40
COC[C@H](c1cnn2cc([C@H](COC(C)(C)C(F)(F)F)NC(=O)c3nonc3C)nc2c1)N1C[C@@](C)(C(F)(F)F)NC1=O (single isomer, unassigned) [Example 30] | > 5.40
[2H]C1([2H])[C@@H](C(F)(F)F)NC(=O)N1[C@H](COC)c1cnn2cc([C@H](COC(C)(C)C(F)(F)F)NC(=O)c3nonc3C3CC3)nc2c1 (relative stereo) [Example 16, 4-Cyclopropyl-N—((R)-1-(7-((S)-2-methoxy-1-((S*)-2-oxo-4-(trifluoromethyl)imidazolidin-1-yl-5,5-d2)ethyl)imidazo[1,2-b]pyridazin-2-yl)-2-(1,1,1-trifluoro-2-methylpropan-2-yl)oxy)ethyl)-1,2,5-oxadiazole-3-carboxamide] | > 5.40
